Experimental data published in patent EP1094066A2, “Condensed heterocyclic glutamic acid derivatives as antiproliferative agents” (AGOURON PHARMACEUTICALS, INC., priority 1993, dated 1994).
pIC50: −log10 of the molar value.

Test system: L1210 murine leukemia (ATCC CCL 219) cell line
Experiment: Cellular growth inhibition, MTT-tetrazolium reduction assay
Format: cell-based
Conditions: Mus musculus, 72 h; L1210 cells, 3 days of continuous exposure
Method: Cellular growth in the presence of the compounds according to the present invention was assessed using the L1210 murine leukemia (ATCC CCL 219) cell line. The cell line was maintained in RPMI 1640 medium containing 5% heat-inactivated fetal bovine serum without antibiotics.
Water insoluble derivatives were dissolved in DMSO and diluted to a final concentration of 0.5% solvent in cell cultures.

Nc1nc2c(c(=O)[nH]1)SC(CCc1ccc(C(=O)N[C@@H](CCC(=O)O)C(=O)O)cc1)CN2 (stereo partly shown) [(14), 2-[4-[2-(2-Amino-4-oxo-4,6,7,8-tetrahydro-3H-pyrimido[5,4-b][1,4]thiazin-6-yl)-ethyl]benzoylamino)pentanedioic acid]
pIC50: 7.30
